{
  "source": "paper PMC12764842",
  "about": "(Acta Pharmacologica Sinica, 2025)",
  "tested_on": "LCMV",
  "design": "species or system BALB/c mice",
  "details": "mouse, in vivo",
  "data": [
    {"smiles": "O=C1O[C@H]2[C@@H]3OC(=O)c4cc(O)c(O)c(O)c4-c4c(O)c(O)c5oc(=O)c6c(c(O)c(O)c7oc(=O)c4c5c76)-c4c(cc(O)c(O)c4O)C(=O)OC[C@H]3OC(O)[C@@H]2OC(=O)c2cc(O)c(O)c(O)c2-c2c1cc(O)c(O)c2O", "note": "(mixture of isomers) [Punicalagin]", "values": [
      {"measurement": "Viral copies in the liver", "value": "no effect"}
    ]},
    {"smiles": "NC(=O)c1nc(F)c[nH]c1=O", "note": "[T-705, favipiravir, reference compound]", "values": [
      {"measurement": "Body weight decrease of LCMV-challenged mice", "value": "decrease was halted"},
      {"measurement": "Viral copies in the liver", "value": "significantly reduced"}
    ]},
    {"smiles": "O=C(/C=C/c1ccc(O)c(O)c1/C=C/c1ccc(O)c(O)c1)O[C@H](Cc1ccc(O)c(O)c1)C(=O)O", "note": "[Salvianolic acid A, salvianolic acid A]", "values": [
      {"measurement": "Viral copies in the liver", "value": "significantly reduced"}
    ]},
    {"smiles": "O=C(O)C[C@@H]1C(=O)O[C@H]2[C@H](OC(=O)c3cc(O)c(O)c(O)c3)[C@@H](OC(=O)c3cc(O)c(O)c4c3[C@H]1[C@H](O)C(=O)O4)[C@H](OC(=O)c1cc(O)c(O)c(O)c1)O[C@@H]2COC(=O)c1cc(O)c(O)c(O)c1", "note": "[Chebullinic acid, chebulinic acid]", "values": [
      {"measurement": "Viral copies in the liver", "value": "no effect"}
    ]}
  ]
}
